According to ChEMBL document CHEMBL1152101, “Boric acid effect ont he hydrolysis of 4-nitrophenyl 2,3-dihydroxybenzoate: mimic of borate inhibition of serine proteases” (Bioorg Med Chem Lett, 1993):

Columns and labels:
[1] = Tested for hydrolysis in presence of boric acid, rate constant was evaluated at the pH 9.5; type: ADME; conditions: buffer
[2] = Tested for hydrolysis in presence of phenylboronic acid, rate constant was evaluated at the pH 9.5; type: ADME; conditions: buffer
[3] = Tested for hydrolysis in presence of phenylboronic acid, dissociation constant was evaluated at the pH 9.5(Apparent inhibition constant); type: ADME
[4] = pKa value was determined; type: physicochemical
[5] = target: T1, Chymotrypsinogen A (Bos taurus, UniProt P00766); assay: Tested for inhibition of hydrolysis in presence of alpha-chymotrypsin and […](Apparent inhibition constant)
[6] = target: T1, Chymotrypsinogen A; assay: Tested for inhibition of hydrolysis in presence of alpha-chymotrypsin and phenylboronic acid(Apparent inhibition constant)
[7] = Tested for hydrolysis in presence of boric acid, dissociation constant was evaluated at the pH 8.5(Apparent inhibition constant); type: ADME
[8] = Tested for hydrolysis in presence of boric acid, rate constant was evaluated at the pH 8.5; type: ADME; conditions: buffer
[9] = Hydrolysis rate constant was determined; type: ADME
[10] = Tested for hydrolysis in presence of boric acid by UV spectrophotometry, dissociation constant was evaluated at the pH < 8; type: ADME
[11] = Tested for hydrolysis in presence of boric acid, dissociation constant was evaluated at the pH 9.5(Apparent inhibition constant); type: ADME

KB [1]: 0.000022 s⁻¹
KB [2]: 0.000017 s⁻¹
Ki [3]: 250 µM
pKa [4]: 8.8
Ki [5]: 40000 µM
Ki [6]: 200 µM
Ki [7]: 380 µM
KB [8]: 0.000018 s⁻¹
K1 [9]: 0.000033 s⁻¹
K2 [9]: 0.00026 s⁻¹
KB [10]: 0.00005 s⁻¹
Ki [11]: 230 µM
Structure (SMILES): O=C(Oc1ccc([N+](=O)[O-])cc1)c1cccc(O)c1O
